The term EC50 denotes the concentration needed to bring the measured effect to its halfway point. High values mean a need for much substance, low ones an effect from little substance.

Each structure is given as a SMILES string.

The results in this text go back to patent US10793557B2, “Sting agonist compounds” (Merck Sharp & Dohme Corp., priority 2018, dated 2020).

The target of one assay is T1, full-length HAQ STING (Homo sapiens, UniProt Q86WV6, G230A/H232R/R293Q/R71H).
T1 construct: AviTag (after GG linker) (C); HRV3C cleavage site (after GS linker) (C); HIS8 (C); made in house; host or cells: Trichoplusia ni (Hi-Five) insect cells infected with baculovirus (virus generated and amplified in Sf21 cells); used as a washed membrane preparation
T1 sequence (Q86WV6 with tags, fused parts or gaps R71H/G230A/H232R/R293Q): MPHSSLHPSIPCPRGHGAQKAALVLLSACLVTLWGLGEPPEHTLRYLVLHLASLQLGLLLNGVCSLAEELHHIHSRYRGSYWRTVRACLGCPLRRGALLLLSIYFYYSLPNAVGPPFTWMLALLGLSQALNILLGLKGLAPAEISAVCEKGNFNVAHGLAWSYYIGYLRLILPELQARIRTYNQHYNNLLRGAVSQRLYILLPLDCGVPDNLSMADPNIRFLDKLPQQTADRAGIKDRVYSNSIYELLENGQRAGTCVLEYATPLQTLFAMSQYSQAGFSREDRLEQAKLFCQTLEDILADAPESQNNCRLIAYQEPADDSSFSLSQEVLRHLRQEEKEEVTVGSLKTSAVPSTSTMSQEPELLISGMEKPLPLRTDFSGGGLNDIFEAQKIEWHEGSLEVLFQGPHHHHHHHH
Nature of the assay: 3H-cGAMP filtration binding assay (HAQ STING). The note with it: competition with tritiated cGAMP, HAQ STING membrane. The text has this:
The ability of compounds to bind STING is quantified by the ability to compete with tritiated cGAMP ligand for human STING receptor membrane using a radioactive filter-binding assay. The binding assay employs STING receptor obtained from Hi-Five cell membranes overexpressing full-length HAQ STING prepared in-house and tritiated cGAMP ligand also purified in-house.
The ability of compounds to bind STING is quantified by their ability to compete with tritiated cGAMP ligand for human STING receptor membrane using a radioactive filter-binding assay. The binding assay employs STING receptor obtained from Trichoplusia ni cell membranes (T. ni; Expression Systems, cat #94-002F, www.expressionsystems.com) overexpressing full-length HAQ STING and tritiated cGAMP ligand.
The basic HAQ STING filtration assay protocol is as follows:
The compounds were serially titrated by the Hamilton STARPlus CORE in a 96-well plate (Greiner, #651201) using a 1:3 ten-point dose response format. After compound preparation, a 2.2 ug/ml working concentration of STING membrane (SEQ. ID. No. 1) was prepared by diluting concentrated membrane into assay buffer (1×PBS; Invitrogen # SH30028.02) and douncing 7× using a manual tissue homogenizer (Wheaton, #357546). 148 uL of prepared membrane was then manually added to each well of a 96-well deep-well polypropylene plate (Fisher Scientific, #12-566-121). Following membrane addition, 2 uL of either titrated test compound, DMSO control (Sigma #276855), or cold cGAMP control was added to the appropriate wells using a BIOMEK FX. Compound and membrane then preincubated for 60 min at RT to allow compound binding to equilibrate. Following equilibration, 8 nM of [^3H]c-GAMP ligand was prepared by diluting into assay buffer, and 50 uL of this working stock was then manually added to each well of the assay plate. Plates were then incubated at RT for 60 min, and the contents of each assay plate were then filtered through a 96-well GF/B filter plate (PerkinElmer, #6005250) using a TOMTEC MACH III Cell Harvester equipped with 20 mM HEPES buffer (Fisher Scientific, # BP299500). The filter plates were then dried at 55° C. for 30 min using a pressurized oven before 30 uL of ULTIMA GOLD F scintillate was added to each well. Tritium levels for each reaction well were then measured using a PerkinElmer TopCount plate reader.
(§1) After normalization to controls, the percent activity for each compound concentration was calculated by measuring the amount of remaining radioactivity. The plot of percent activity versus the log of compound concentration was fit with a 4-parameter dose response equation to calculate EC50 values.

Assay [1] concerns secretion of interferon-beta from THP1 cells. The assay can be described thus: IFN-β secretion in THP1 cell culture (5 h). Format: cell-based. The conditions noted are these: Homo sapiens, THP-1, 5 h, compound at 30 μM, 30 uM cGAMP = 100%, read-out: % Effect at 30 μM relative to 2′3′-cGAMP. The method, then: The ability of compounds to stimulate the secretion of interferon-beta from THP1 cells was measured using a human IFN-β AlphaLISA kit (Perkin Elmer, Cat. No. AL265F). The basic protocol is as follows:
A Labcyte Echo 550 acoustic dispenser was used to transfer 120 nL of compound dissolved in DMSO into the wells of an empty, sterile 384-well microplate, (Corning, Cat. No. 3712). THP1 cells (American Type Culture Collection, Cat. No. TIB202) previously frozen in Recovery Medium (Life Technologies, Cat. No. 12648-010) were thawed and immediately diluted 10-fold into 37° C. assay medium (RPMI 1640+L-Glutamine & phenol red, Life Technologies, Cat. No. 11875-085; 0.5% heat inactivated fetal bovine serum, Sigma Aldrich, Cat. No. F4135; 1 mM Sodium Pyruvate, Life Technologies, Cat. No. 11360-070; 1× non-essential amino acids; Life Technologies, Cat. No. 11140-050). The cell viability and count was ascertained using a Beckman Coulter V-Cell XR cell counter. The cells suspension was centrifuged at 200×g for 5 min at RT. Cells were resuspended to a density of 0.8×10^6/mL in 37° C. assay medium. Subsequent liquid transfers were performed using either a Matrix electronic multichannel pipette or an Agilent Bravo Automated Liquid Handling Platform.
The assay was started by dispensing 40 μL of the previously prepared cell suspension into the wells of the plate containing compounds. After 5 h incubation at 37° C., 5% CO2 in a humidified atmosphere, the plate of cells and compounds was centrifuged at 200×g for 5 min at RT. From each well, 5 μL of supernatant was transferred into corresponding wells of a white 384-well plate (Perkin Elmer, Cat. No. 6005620). To these supernatant-containing wells was added 10 μL of 5× Anti-Analyte Acceptor beads (50 μg/mL of AlphaLISA HiBlock Buffer) and incubated for 30 min at RT while shaking on an orbital plate shaker. To each well was added 10 μL of 5× Biotinylated Antibody Anti-analyte (5 nM in AlphaLISA HiBlock Buffer) and incubated on an orbital plate shaker for 60 min at RT or overnight at 4° C. To each well was added 25 μL of 2× SA-Donor beads (80 μg/mL in AlphaLISA HiBlock Buffer) and incubated for 30-45 min at RT in the dark while shaking on an orbital plate shaker. The plate was then read on a Perkin Elmer Envision (λex=680 nm, […]). The percent effect of the AlphaLISA signal at each compound concentration was calculated based on 30 uM cGAMP positive controls and 0.3% DMSO negative controls. The plot of percent effect versus the log of compound concentration was fit with a 4-parameter concentration response equation to calculate EC50 values. The test compounds were tested at concentrations 30000, 10000, 3333, 1111, 370.4, 123.4, 41.2, 13.7, 4.6, and 1.5 nM with 0.3% residual DMSO. The control compound, cGAMP was tested at concentrations 100000, 33333, 11111, 3704, 1235, 412, 137, 46, and 15 nM with 0.3% residual DMSO.
Compounds of the disclosure were evaluated for IFN-β secretion in THP1 cell culture as described above. The following table tabulates the biological data for these compounds as percent activation relative to 2′3′-cGAMP at the 30 µM concentration.

The target of the next assay is T2, full-length WT STING (Homo sapiens, UniProt Q86WV6, H232R).
T2 construct: AviTag (after gg linker) (C); HRV3C cleavage site (after gs linker) (C); HIS8 (C); made in house; host or cells: Trichoplusia ni (Hi-Five) insect cells infected with baculovirus (virus generated and amplified in Sf21 cells); used as a washed membrane preparation
T2 sequence (Q86WV6 with tags, fused parts or gaps H232R): as the sequence (Q86WV6 with tags, fused parts or gaps R71H/G230A/H232R/R293Q) above, with H71R, A230G, Q293R counted along it
The assay can be described thus: 3H-cGAMP filtration binding assay (WT STING). The conditions noted are these: competition with tritiated cGAMP, WT STING membrane. The method, then:
The ability of compounds to bind STING is quantified by their ability to compete with tritiated cGAMP ligand for human STING receptor membrane using a radioactive filter-binding assay. The binding assay employs STING receptor obtained from Trichoplusia ni cell membranes (T. ni; Expression Systems, cat #94-002F, www.expressionsystems.com) overexpressing full-length WT STING and tritiated cGAMP ligand.
The basic WT STING filtration assay protocol is as follows:
16 nM of [^3H] c-GAMP ligand was prepared by diluting into assay buffer, and 50 uL of this working stock was manually added to each well of the assay plate. After ligand addition, 2 uL of either titrated test compound, DMSO control (Sigma #276855), or cold cGAMP control was added to the appropriate wells using a BIOMEK FX. The serially titrated compound was prepared on a Hamilton STARPlus CORE in a 96-well plate (Greiner, #651201) using a 1:3 ten-point dose response format. Following compound addition, a 2.2 ug/ml working concentration of STING membrane (SEQ. ID. No. 3) was prepared by diluting concentrated membrane into assay buffer (1×PBS; Invitrogen # SH30028.02) and douncing 7× using a manual tissue homogenizer (Wheaton, #357546). 148 uL of this prepared membrane was then manually added to each well of a 96-well deep-well polypropylene plate (Fisher Scientific, #12-566-121). Compound, ligand, and membrane then incubated for 60 min at RT before the contents of each assay plate were filtered through a 96-well GF/B filter plate (PerkinElmer, #6005250) using a TOMTEC MACH III Cell Harvester equipped with 20 mM HEPES buffer (Fisher Scientific, # BP299500). The filter plates were then dried at 55° C. for 30 min using a pressurized VWR oven before 30 uL of ULTIMA GOLD F scintillate was added to each well. Tritium levels for each reaction well were then measured using a PerkinElmer TopCount plate reader.
as §1

Regarding `COc1cc2sc(C(=O)C[C@H](C)C(=O)O)cc2nc1OCCOc1c(OC)cc2sc(C(=O)C[C@H](C)C(=O)O)cc2c1F` (racemic) [Example 19, rac-(R)-4-(5-(2-((2-((R)-3-carboxybutanoyl)-4-fluoro-6-methoxybenzo[b]thiophen-5-yl)oxy)ethoxy)-6-methoxythieno[3,2-b]pyridin-2-yl)-2-methyl-4-oxobutanoic acid], the results for the EC50 on full-length HAQ STING and on full-length WT STING were 2 nM and 9 nM, respectively. The activation at 30 µM in assay [1] worked out at 30%.

Consider `COc1cc2sc(C(=O)C[C@H](C)C(=O)O)cc2nc1OCCCOc1c(OC)cc2sc(C(=O)C[C@H](C)C(=O)O)cc2c1F` (racemic) [Example 22, rac-(R)-4-(5-(3-((2-((R)-3-carboxybutanoyl)-4-fluoro-6-methoxybenzo[b]thiophen-5-yl)oxy)propoxy)-6-methoxythieno[3,2-b]pyridin-2-yl)-2-methyl-4-oxobutanoic acid], for which the EC50 on full-length HAQ STING and at full-length WT STING was 1 nM in each case. Further, the activation at 30 µM in assay [1] amounted to 48%.

On to `COc1cc2sc(C(=O)C[C@H](C)C(=O)O)cc2cc1OCCOc1cc2sc(C(=O)C[C@H](C)C(=O)O)cc2cc1OC` (racemic) [Example 57, rac-(R)-4-(5-(2-((2-((R)-3-carboxybutanoyl)-5-methoxybenzo[b]thiophen-6-yl)oxy)ethoxy)-6-methoxybenzo[b]thiophen-2-yl)-2-methyl-4-oxobutanoic acid], for which the EC50 amounted to 92 nM at full-length HAQ STING and 398 nM on full-length WT STING. Moreover, the activation at 30 µM in assay [1] was 15%.

Regarding `COc1cc2sc(C(=O)C[C@H](C)C(=O)O)cc2cc1OCCCOc1cc2cc(C(=O)[C@H]3C[C@@H]3C(=O)O)sc2cc1OC` (racemic) [Example 68, rac-(1R,2R)-2-(5-(3-((2-((R)-3-carboxybutanoyl)-6-methoxybenzo[b]thiophen-5-yl)oxy)propoxy)-6-methoxybenzo[b]thiophene-2-carbonyl)cyclopropane-1-carboxylic acid], the results for the EC50 at full-length HAQ STING and at full-length WT STING were 50 nM and 443 nM, respectively. Further, the activation at 30 µM in assay [1] turned out to be 24%.

On to `COc1cc2sc(C(=O)CCC(=O)O)cc2cc1CCCOc1c(OC)cc2sc(C(=O)[C@@H]3C[C@H]3C(=O)O)cc2c1F` (relative stereo) [Example 85, trans-2-(5-(3-(2-(3-carboxypropanoyl)-6-methoxybenzo[b]thiophen-5-yl)propoxy)-4-fluoro-6-methoxybenzo[b]thiophene-2-carbonyl)cyclopropane carboxylic acid], for which the figures for the EC50 on full-length HAQ STING and on full-length WT STING were 360 nM and 9010 nM, respectively. For the same compound, in assay [1], the activation at 30 µM amounted to 145%.

Consider `COc1cc2sc(C(=O)C[C@H](C)C(=O)O)cc2c(F)c1OCCCOc1cc2sc(C(=O)[C@@H]3CC[C@H]3C(=O)O)cc2c(F)c1OC` (single isomer, unassigned) [Example 97], for which the EC50 came out at 20 nM at full-length HAQ STING and 69 nM on full-length WT STING.

Compound `COc1cc2sc(C(=O)C[C@H](C)C(=O)O)cc2c(F)c1OCCCOc1c(OC)cc2sc(C(=O)[C@@H]3CC[C@H]3C(=O)O)cc2c1F` [Example 98, trans-2-(5-(3-((2-((S)-3-carboxybutanoyl)-4-fluoro-6-methoxybenzo[b]thiophen-5-yl)oxy)propoxy)-4-fluoro-6-methoxybenzo[b]thiophene-2-carbonyl)cyclobutane carboxylic acid] showed an EC50 on full-length HAQ STING of 1 nM. In assay [1], the activation at 30 µM amounted to 92%.

The compound `COc1cc2sc(C(=O)C[C@H](C)C(=O)O)cc2c(F)c1OCCCOc1c(OC)cc2sc(C(=O)[C@@H]3CC[C@H]3C(=O)O)cc2c1F` [Example 99, trans-2-(5-(3-((2-((S)-3-carboxybutanoyl)-4-fluoro-6-methoxybenzo[b]thiophen-5-yl)oxy)propoxy)-4-fluoro-6-methoxybenzo[b]thiophene-2-carbonyl)cyclobutane carboxylic acid] had an EC50 on full-length HAQ STING of 1 nM.
